The values that follow come from ChEMBL document CHEMBL1154774, “Neglected tropical diseases: multi-target-directed ligands in the search for novel lead candidates against Trypanosoma and Leishmania” (J Med Chem, 2009).

SMILES strings stand for the structures.

A short description of data set [1]: Selectivity index, ratio of cytotoxicity against mammalian cells to IC50 for Trypanosoma brucei rhodesiense. The format is toxicity, cell-based. Particulars: read-out: Selectivity Index.
The next data set deals with Trypanosoma cruzi. In words: Antitrypanosomal activity against Trypanosoma cruzi Tulahuen 2. The data set is classed as functional, organism-based.
A short description of data set [2]: Selectivity index, ratio of cytotoxicity against mammalian cells to IC50 for Trypanosoma cruzi Tulahuen 2. The format is toxicity, cell-based. Particulars: read-out: Selectivity Index.
Another data set addresses Trypanothione reductase (Trypanosoma cruzi, UniProt P28593). In words: Inhibition of Trypanosoma cruzi trypanothione reductase.
For the next data set, the system named is Leishmania mexicana. Nature of the data set: Leishmanistatic activity against Leishmania mexicana. The format is functional.

Trypanothione reductase, sequence (P28593 whole entry): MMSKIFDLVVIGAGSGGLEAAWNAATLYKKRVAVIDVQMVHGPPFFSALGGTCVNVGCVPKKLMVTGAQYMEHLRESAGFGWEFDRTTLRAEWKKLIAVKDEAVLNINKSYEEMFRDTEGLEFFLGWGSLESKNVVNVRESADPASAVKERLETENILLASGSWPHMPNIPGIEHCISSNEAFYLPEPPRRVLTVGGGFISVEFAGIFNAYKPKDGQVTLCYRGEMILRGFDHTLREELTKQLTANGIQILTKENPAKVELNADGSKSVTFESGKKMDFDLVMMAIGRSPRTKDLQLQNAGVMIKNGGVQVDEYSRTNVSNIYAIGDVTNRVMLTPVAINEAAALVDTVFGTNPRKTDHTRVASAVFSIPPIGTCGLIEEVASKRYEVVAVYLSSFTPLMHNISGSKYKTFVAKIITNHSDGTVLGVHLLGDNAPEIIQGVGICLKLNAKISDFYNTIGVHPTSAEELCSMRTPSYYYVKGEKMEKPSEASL

On to `O=C1C=C(Oc2ccccc2)C(=O)c2ccccc21`, for which the selectivity ratio in data set [1] was 74. Consider `NC(=S)N/N=C/c1ccc(OCc2ccc3no[n+]([O-])c3c2)cc1`, for which the IC50 was found to be 15 µM in the data set on Trypanosoma cruzi and 43 µM at Trypanothione reductase. Moreover, in data set [2], the selectivity ratio came to 27.

In the case of `C/C(=N/Nc1ccccn1)[C@H]1CC[C@H]2[C@@H]3CC[C@H]4C[C@@H](O)CC[C@]4(C)[C@H]3CC[C@]12C`, in the data set with Leishmania mexicana, the “growth inhibition (GI)” value amounted to 39%.
